Key:
Type in all cases: cell-based
[1] = biological target: T1, 17β-hydroxysteroid dehydrogenase type 2 (Homo sapiens, UniProt P37059); test: Inhibition of 17β-HSD type 2 in MCF-7 cells stably expressing the isoenzyme (HPLC, tritium labeled estradiol); conditions: 2 nM estradiol, read-out: % Inhibition of the 17β-HSD enzyme type 2 (HSD2); for inhibition at 1 µM: MCF7, 1 μM compound; for inhibition at 10 µM: MCF7, 10 μM compound
T1 construct: expressed in transfected cells; host or cells: MCF-7
T1 sequence (P37059 1-387): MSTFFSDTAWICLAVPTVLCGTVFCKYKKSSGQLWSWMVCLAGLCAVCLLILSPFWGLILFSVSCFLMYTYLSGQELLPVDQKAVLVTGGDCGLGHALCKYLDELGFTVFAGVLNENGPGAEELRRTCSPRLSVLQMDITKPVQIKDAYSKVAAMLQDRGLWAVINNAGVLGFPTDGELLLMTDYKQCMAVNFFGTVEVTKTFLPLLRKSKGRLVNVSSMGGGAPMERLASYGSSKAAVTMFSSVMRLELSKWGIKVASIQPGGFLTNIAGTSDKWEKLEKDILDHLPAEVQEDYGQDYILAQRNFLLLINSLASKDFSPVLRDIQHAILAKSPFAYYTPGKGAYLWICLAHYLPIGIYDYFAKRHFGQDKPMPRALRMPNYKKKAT
Source text: (§1) Biological Testing Materials and Methods 1. Inhibition of the 17β-hydroxysteroid dehydrogenase type 1, type 2 and type 3 enzyme
(§2) The compounds were screened in respect of 17β-HSD enzyme activity in vitro on established M CF-7 cell lines, each stably expressing one of the respective 17β-HSD isoenzymes. The interconversion of substrate by each isoenzyme and the 17β-HSD inhibiting activity of chemical compounds in these cell lines were detected by HPLC system.
(§3) Varying amounts of the test compounds were incubated in the growth medium of the 17β-HSD expressing cells together tritium labeled substrate (2 nM estrone for 17β-HSD type 1; 2 nM estradiol for 17β-HSD type 2; and 2 nM androstenedione for 17β-HSD type 3). The medium samples were removed after exact incubation time and the reaction is stopped by trichloroacetic acid (TCA). The samples were analyzed by HPLC-coupled flow scintillation analysis.
(§4) For each enzyme type, the HSD-inhibiting activity of an individual test compound was calculated by comparing the conversion of a control sample without any test compound (referred to as “Negative Control”) to the (reduced) conversion of the test sample containing the particular compound to be tested (referred to as “Test Sample”).
(§5) Two concentrations of each compound were used. The number of the compound refers to the numbers indicated in the Experimental Section.

[2] = biological target: T2, 17β-hydroxysteroid dehydrogenase type 1 (Homo sapiens, UniProt P14061); test: Inhibition of 17β-HSD type 1 in MCF-7 cells stably expressing the isoenzyme (HPLC, tritium labeled estrone); conditions: 2 nM estrone, read-out: % Inhibition of the 17β-HSD enzyme type 1 (HSD1); for inhibition at 1 µM: MCF7, 1 μM compound; for inhibition at 10 µM: MCF7, 10 μM compound
T2 construct: expressed in transfected cells; host or cells: MCF-7
T2 sequence (P14061 1-328): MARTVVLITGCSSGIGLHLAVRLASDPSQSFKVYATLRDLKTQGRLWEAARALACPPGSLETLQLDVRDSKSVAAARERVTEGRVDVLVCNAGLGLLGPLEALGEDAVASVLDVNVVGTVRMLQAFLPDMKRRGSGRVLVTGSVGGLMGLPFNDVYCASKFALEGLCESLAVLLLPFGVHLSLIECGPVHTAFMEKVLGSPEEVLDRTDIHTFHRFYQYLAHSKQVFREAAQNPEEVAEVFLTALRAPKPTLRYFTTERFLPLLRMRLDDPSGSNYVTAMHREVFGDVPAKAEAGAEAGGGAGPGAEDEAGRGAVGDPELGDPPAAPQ
Source text: as §1, §2, §3, §4, §5

[3] = biological target: T3, 17β-hydroxysteroid dehydrogenase type 3 (Homo sapiens, UniProt P37058); test: Inhibition of 17β-HSD type 3 in MCF-7 cells stably expressing the isoenzyme (HPLC, tritium labeled androstenedione); conditions: 2 nM androstenedione, read-out: % Inhibition of the 17β-HSD enzyme type 3 (HSD3); for inhibition at 1 µM: MCF7, 1 μM compound; for inhibition at 10 µM: MCF7, 10 μM compound
T3 construct: expressed in transfected cells; host or cells: MCF-7
T3 sequence (P37058 1-310): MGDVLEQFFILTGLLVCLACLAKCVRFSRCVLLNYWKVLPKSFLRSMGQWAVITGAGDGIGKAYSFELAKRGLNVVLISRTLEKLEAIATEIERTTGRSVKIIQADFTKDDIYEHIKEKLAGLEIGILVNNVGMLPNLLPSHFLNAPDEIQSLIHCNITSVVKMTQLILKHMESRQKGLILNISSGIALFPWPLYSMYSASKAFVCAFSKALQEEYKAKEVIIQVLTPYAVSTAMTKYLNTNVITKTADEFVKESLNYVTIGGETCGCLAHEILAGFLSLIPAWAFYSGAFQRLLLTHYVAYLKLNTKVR
Source text: as §1, §2, §3, §4, §5

Structure (SMILES)	inhibition at 1 µM [1] [%]	inhibition at 10 µM [1] [%]	inhibition at 1 µM [2] [%]	inhibition at 10 µM [2] [%]	inhibition at 1 µM [3] [%]	inhibition at 10 µM [3] [%]
O=CC1=C(Cl)c2sc3nc4n(c(=O)c3c2CC1)CCCCCC4C=O (stereo not drawn) [Compound 11, 4-Chloro-1,2,7,9, 10,11,12,14-octahydro-14-oxo-8H-[1]benzothieno[2′,3′:4,5]pyrimido-[1,2-a]-azocine-3,7-dicarbaldehyde]	16.7	28.3	4.7	51.1	7.3	31.7
O=Cc1ccc2c(sc3nc4n(c(=O)c32)CCCCC4)c1Sc1ccccc1 [Compound 12, 7,8,9,10,11,13-Hexahydro-13-oxo-4-(phenylthio)-[1]benzothieno[2′,3′:4,5]pyrimido[1,2-a]azepine-3-carbaldehyde]	7	8.9	15.1	87.9	8.6	25.5
O=c1c2c3c(sc2nc2n1CCCCCC2)C(O)CCC3 (stereo not drawn) [Compound 13, 1,2,3,4,7,8,9,10,11,12-Decahydro-4-hydroxy-14H-[1]benzothieno[2′,3′:4,5]pyrimido[1,2-a]azocin-14-one]	1.7	18.6	5	20	-2.2	11.7
CC1CCc2nc3sc4c(c3c(=O)n2CC1)CCCC4 (stereo not drawn) [Compound 14, 9-Methyl-2,3,4,7,8,9,10,11-octahydro-[1]benzothieno[2′,3′:4,5]pyrimido[1,2-a]azepin-13(1H)-one]	5.9	14.9	12.8	19.6	27.6	34.2
CCOC(=O)C1CCCn2c1nc1sc3c(c1c2=O)CCCC3 (stereo not drawn) [Compound 15, 1,2,3,4,7,9,10,12-Octahydro-12-oxo-8H-[1]benzothieno[2,3-d]pyrido[1,2-a]pyrimidine-7-carboxylic acid ethyl ester]	10.7	15.7	14.8	24.5	-0.3	13.5
CCOC(=O)C1CCc2nc3sc4c(c3c(=O)n2CC1)CCCC4 (stereo not drawn) [Compound 16, 1,2,3,4,7,8,9,10,11,13-Decahydro-13-oxo-[1]benzothieno[2′,3′:4,5]pyrimido[1,2-a]azepine-9-carboxylic acid ethyl ester]	3	24.8	17.2	18.6	13.6	22.9
CC1CCc2nc3sc4c(c3c(=O)n2CC1)CCCC4=O (stereo not drawn) [Compound 17, 2,3,8,9,10,11-Hexahydro-9-methyl-[1]benzothieno[2′,3′: 4,5]pyrimido[1,2-a]azepine-4,13(1H,7H)-dione]	15.2	20.1	18.4	39.4	21.6	32.4
CCOC(=O)C1CCCn2c1nc1sc3c(c1c2=O)CCCC3=O (stereo not drawn) [Compound 18, 4,12-Dioxo-1,2,3,4,7,9,10,12-octahydro-8H-[1]benzothieno[2,3-d]pyrido[1,2-a]pyrimidine-7-carboxylic acid ethyl ester]	18.7	23.8	0.5	9.5	-3	21.3
CCOC(=O)C1CCc2nc3sc4c(c3c(=O)n2CC1)CCCC4=O (stereo not drawn) [Compound 19, 4,13-Dioxo-1,2,3,4,7,8,9,10,11,13-decahydro-[1]benzothieno[2′,3′: 4,5]pyrimido[1,2-a]azepine-9-carboxylic acid ethyl ester]	0.6	4.4	10.6	33.1	13	10.5
CC1CCc2nc3sc4c(c3c(=O)n2CC1)CCC(C=O)=C4Cl (stereo not drawn) [Compound 20, 4-Chloro-9-methyl-1,2,7,8,9,10,11,13-octahydro-13-oxo-[1]benzothieno[2′,3′: 4,5]pyrimido [1,2-a]azepine-3-carbaldehyde]	11.2	6.2	10.4	45.7	32	100

Next, values leading:

inhibition at 1 µM [1] [%]	inhibition at 10 µM [1] [%]	inhibition at 1 µM [2] [%]	inhibition at 10 µM [2] [%]	inhibition at 1 µM [3] [%]	inhibition at 10 µM [3] [%]	Structure (SMILES)
8.9	18.6	74	100	10.5	100	CCCSC1=C(C=O)CCc2c1sc1nc3n(c(=O)c21)CCCCC3 [Compound 5c, 1,2,7,8,9,10,11,13-Octahydro-13-oxo-4-(propylthio)[1]benzothieno[2′,3′:4,5]-pyrimido-[1,2-a]azepine-3-carboxaldehyde]
8.2	15.1	54.1	100	32.6	72	CCCCSC1=C(C=O)CCc2c1sc1nc3n(c(=O)c21)CCCCC3 [Compound 5d, 1,2,7,8,9,10,11,13-Octahydro-13-oxo-4-(butylthio)[1]benzothieno[2′,3′:4,5]-pyrimido-[1,2-a]azepine-3-carboxaldehyde]
8.4	20.2	71.9	100	50.8	86.3	CC(C)SC1=C(C=O)CCc2c1sc1nc3n(c(=O)c21)CCCCC3 [Compound 5e, 1,2,7,8,9,10,11,13-Octahydro-13-oxo-4-(isopropylthio)[1]benzothieno[2′,3′:4,5]-pyrimido-[1,2-a]azepine-3-carboxaldehyde]
11.6	17.3	43.9	100	22.5	80.5	CCCSC1=C(C=O)CCc2c1sc1nc3n(c(=O)c21)CCCCCC3 [Compound 5i, 1,2,7,9,10,11,12,14-octahydro-14-oxo-4-(propylthio)-8H-[1]benzothieno[2′,3′:4,5]pyrimido-[1,2-a]-azocine-3-carbaldehyde]
11.6	42.5	51.8	100	45.9	48.9	O=c1c2c3c(sc2nc2n1CCCCC2)C(Sc1ccccc1)=C(CO)CC3 [Compound 6a, 1,2,7,8,9,10,11,13-Octahydro-13-oxo-4-(phenylthio)[1]benzothieno[2′,3′:4,5]-pyrimido-[1,2-a]azepine-3-hydroxymethyl]
37.5	36.7	47.7	82.4	20.4	38.1	CCCSC1=C(CO)CCc2c1sc1nc3n(c(=O)c21)CCCCC3 [Compound 6c, 1,2,8,9,10,11-Hexahydro-3-(hydroxymethyl)-4-(propylthio)-[1]benzothieno[2′,3′:4,5]-pyrimido-[1,2-a]azepine-13(7H)-one]
